Test results as given in PubChem BioAssay AID248 (DTP/NCI, 2004).
Values joined by “and” are separate entries in the source; they are usually repeats but may differ in a detail not shown here. Equal values may be shown once. Inconclusive results and toxic doses are left out. No stated cut-off is given here; in the data, active means T/C of 150% or more; inactive means T/C below 125%.

System: L1210 leukemia ip in BDF1 mice, survival T/C
Assay: NCI In Vivo Anticancer Drug Screen. Data for tumor model L1210 Leukemia (intraperitoneal) in B6D2F1 (BDF1) mice
Conditions: endpoint: mean survival time, higher = longer survival
Outline: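 In this screen, tumor-bearing mice given compound are compared to those given vehicle, and their survival values are reported as a treated-to-control quotient.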

[1] = dose: 100.0 mg/kg/injection, schedule: Q01DX001 (ip), vehicle: other
[2] = dose: 200.0 mg/kg/injection, schedule: Q01DX001 (ip), vehicle: other
[3] = dose: 400.0 mg/kg/injection, schedule: Q01DX001 (ip), vehicle: other
[4] = dose: 100.0 mg/kg/injection, schedule: Q01DX001 (ip), vehicle: saline
[5] = dose: 200.0 mg/kg/injection, schedule: Q01DX001 (ip), vehicle: saline
[6] = dose: 400.0 mg/kg/injection, schedule: Q01DX001 (ip), vehicle: saline
[7] = dose: 100.0 mg/kg/injection, schedule: Q04DX003 (ip), vehicle: saline
[8] = dose: 200.0 mg/kg/injection, schedule: Q04DX003 (ip), vehicle: saline
[9] = dose: 400.0 mg/kg/injection, schedule: Q04DX003 (ip), vehicle: saline
[10] = dose: 100.0 mg/kg/injection, schedule: Q01DX001 (ip), vehicle: carboxymethylcellulose (CMC)
[11] = dose: 100.0 mg/kg/injection, schedule: Q04DX003 (ip), vehicle: carboxymethylcellulose (CMC)
[12] = dose: 200.0 mg/kg/injection, schedule: Q01DX001 (ip), vehicle: carboxymethylcellulose (CMC)
[13] = dose: 200.0 mg/kg/injection, schedule: Q04DX003 (ip), vehicle: carboxymethylcellulose (CMC)
[14] = dose: 400.0 mg/kg/injection, schedule: Q01DX001 (ip), vehicle: carboxymethylcellulose (CMC)
[15] = dose: 400.0 mg/kg/injection, schedule: Q04DX003 (ip), vehicle: carboxymethylcellulose (CMC)

Measured: T/C

Nc1[nH][nH]c(=O)c1N=O
inactive: dose: 50.0 mg/kg/injection, schedule: Q01DX009 (ip), vehicle: Klucel (hydroxypropylcellulose) (HPC) 95 % of control | dose: 100.0 mg/kg/injection, schedule: Q01DX009 (ip), vehicle: Klucel (hydroxypropylcellulose) (HPC) 111 % of control | dose: 100.0 mg/kg/injection, schedule: Q04DX002 (ip), vehicle: saline 103 % of control | dose: 200.0 mg/kg/injection, schedule: Q01DX009 (ip), vehicle: Klucel (hydroxypropylcellulose) (HPC) 88 % of control | dose: 200.0 mg/kg/injection, schedule: Q04DX002 (ip), vehicle: saline 111 % of control | dose: 400.0 mg/kg/injection, schedule: Q04DX002 (ip), vehicle: saline 92 % of control

CCN1C=C/C(=C/c2cc3scc(-c4ccccc4)[n+]3c3ccccc23)c2ccccc21
inactive: dose: 0.01 mg/kg/injection, schedule: Q04DX003 (ip), vehicle: saline with Tween-80 108 % of control | dose: 0.02 mg/kg/injection, schedule: Q04DX003 (ip), vehicle: saline with Tween-80 98 % of control | dose: 0.04 mg/kg/injection, schedule: Q04DX003 (ip), vehicle: saline with Tween-80 93 % of control

O=C1CCCCC1O (configuration not stated)
inactive: [1] 116 % of control | [2] 103 % of control | [3] 95 % of control

COc1ccc2c(c1)[nH]c1c(C)nccc12
inactive: dose: 75.0 mg/kg/injection, schedule: Q01DX Z (ip), vehicle: saline 96 % of control | dose: 150.0 mg/kg/injection, schedule: Q01DX Z (ip), vehicle: saline 100 % of control | dose: 300.0 mg/kg/injection, schedule: Q01DX Z (ip), vehicle: saline 96 % of control and 108 % of control

N#C[SH2+].N#C[SH2+].N#C[SH2+].N#C[SH2+].[Cu+2].c1ccc(C[P+](c2ccccc2)(c2ccccc2)c2ccccc2)cc1
inactive: dose: 6.0 mg/kg/injection, schedule: Q01DX009 (ip), vehicle: saline 100 % of control

Cc1ccccc1N=Nc1c(O)n(-c2ccc(Cl)cc2)c(=S)n(-c2ccccc2)c1=O
inactive: dose: 75.0 mg/kg/injection, schedule: Q04DX003 (ip), vehicle: Klucel (hydroxypropylcellulose) (HPC) 100 % of control | dose: 150.0 mg/kg/injection, schedule: Q04DX003 (ip), vehicle: Klucel (hydroxypropylcellulose) (HPC) 96 % of control | dose: 300.0 mg/kg/injection, schedule: Q04DX003 (ip), vehicle: Klucel (hydroxypropylcellulose) (HPC) 107 % of control

CC1=C(Sc2ccccc2)c2ccccc2C1
inactive: [4] 86 % of control | [5] 91 % of control | [6] 91 % of control

O=C(Nc1ccccc1C(=O)OCc1ccc([N+](=O)[O-])cc1)OCc1ccccc1
inactive: dose: 75.0 mg/kg/injection, schedule: Q04DX003 (ip), vehicle: saline 98 % of control | dose: 150.0 mg/kg/injection, schedule: Q04DX003 (ip), vehicle: saline 98 % of control | dose: 300.0 mg/kg/injection, schedule: Q04DX003 (ip), vehicle: saline 104 % of control

CN(C)Cc1cccc([N+](=O)[O-])c1
inactive: dose: 25.0 mg/kg/injection, schedule: Q04DX003 (ip), vehicle: saline 88 % of control | dose: 50.0 mg/kg/injection, schedule: Q04DX003 (ip), vehicle: saline 98 % of control | [7] 102 % of control

OC(c1ccccc1)c1ccccc1
inactive: [7] 95 % of control | [8] 100 % of control | [9] 97 % of control

COC(=O)C(C)[P+](c1ccccc1)(c1ccccc1)c1ccccc1 (configuration not stated)
inactive: dose: 1.25 mg/kg/injection, schedule: Q01DX009 (ip), vehicle: saline 108 % of control | dose: 1.65 mg/kg/injection, schedule: Q01DX009 (ip), vehicle: saline 104 % of control and 114 % of control | dose: 2.5 mg/kg/injection, schedule: Q01DX001 (ip), vehicle: saline 96 % of control | dose: 2.5 mg/kg/injection, schedule: Q01DX009 (ip), vehicle: saline 107 % of control and 119 % of control | dose: 3.75 mg/kg/injection, schedule: Q01DX009 (ip), vehicle: saline 109 % of control and 110 % of control | dose: 5.0 mg/kg/injection, schedule: Q01DX001 (ip), vehicle: saline 110 % of control | dose: 5.0 mg/kg/injection, schedule: Q01DX009 (ip), vehicle: saline 97 % of control

NC(=O)n1cncn1
inactive: [4] 90 % of control | dose: 100.0 mg/kg/injection, schedule: Q01DX009 (ip), vehicle: acetone 89 % of control | [5] 107 % of control | dose: 200.0 mg/kg/injection, schedule: Q01DX009 (ip), vehicle: acetone 100 % of control | [6] 100 % of control | dose: 400.0 mg/kg/injection, schedule: Q01DX009 (ip), vehicle: acetone 91 % of control

C=CC1(C)CO1 (configuration not stated)
inactive: [7] 93 % of control | [8] 112 % of control | [9] 96 % of control

CCN(CC)CCC(O)c1cc(-c2ccc(Cl)cc2)nc2ccc(OC)cc12 (configuration not stated)
inactive: [10] 94 % of control | [11] 104 % of control | [12] 92 % of control | [13] 114 % of control | [14] 94 % of control | [15] 110 % of control

CCOCCNC1=C(Cl)C(=O)c2ccccc2C1=O
inactive: [1] 97 % of control | [2] 93 % of control | [3] 90 % of control

Cc1ccc2cccc(O)c2n1
inactive: dose: 12.5 mg/kg/injection, schedule: Q04DX002 (ip), vehicle: Klucel (hydroxypropylcellulose) (HPC) 94 % of control | dose: 25.0 mg/kg/injection, schedule: Q04DX002 (ip), vehicle: Klucel (hydroxypropylcellulose) (HPC) 88 % of control | dose: 50.0 mg/kg/injection, schedule: Q04DX002 (ip), vehicle: Klucel (hydroxypropylcellulose) (HPC) 102 % of control

CCN(CC)P1(=O)NCCCO1 (configuration not stated)
inactive: dose: 100.0 mg/kg/injection, schedule: Q01DX009 (ip), vehicle: saline with Tween-80 87 % of control | dose: 200.0 mg/kg/injection, schedule: Q01DX009 (ip), vehicle: saline with Tween-80 94 % of control | dose: 400.0 mg/kg/injection, schedule: Q01DX009 (ip), vehicle: saline with Tween-80 92 % of control

CC(=O)Nc1ccc(C(=O)O)cc1[N+](=O)[O-]
inactive: [10] 99 % of control | dose: 100.0 mg/kg/injection, schedule: Q01DX009 (ip), vehicle: carboxymethylcellulose (CMC) 95 % of control and 105 % of control | dose: 100.0 mg/kg/injection, schedule: Q04DX002 (ip), vehicle: Klucel (hydroxypropylcellulose) (HPC) 95 % of control | dose: 100.0 mg/kg/injection, schedule: Q04DX002 (ip), vehicle: carboxymethylcellulose (CMC) 106 % of control and 90 % of control | [11] 97 % of control | [12] 97 % of control | dose: 200.0 mg/kg/injection, schedule: Q01DX009 (ip), vehicle: carboxymethylcellulose (CMC) 98 % of control and 107 % of control | dose: 200.0 mg/kg/injection, schedule: Q04DX002 (ip), vehicle: Klucel (hydroxypropylcellulose) (HPC) 98 % of control | dose: 200.0 mg/kg/injection, schedule: Q04DX002 (ip), vehicle: carboxymethylcellulose (CMC) 93 % of control and 101 % of control | [13] 105 % of control | dose: 400.0 mg/kg/injection, schedule: Q01DX009 (ip), vehicle: carboxymethylcellulose (CMC) 93 % of control and 91 % of control | dose: 400.0 mg/kg/injection, schedule: Q04DX002 (ip), vehicle: Klucel (hydroxypropylcellulose) (HPC) 98 % of control | dose: 400.0 mg/kg/injection, schedule: Q04DX002 (ip), vehicle: carboxymethylcellulose (CMC) 93 % of control and 90 % of control | [15] 91 % of control

CN(C)CCCCC(C#N)(c1ccccc1)c1ccccc1
inactive: dose: 15.0 mg/kg/injection, schedule: Q01DX001 (ip), vehicle: saline 88 % of control | dose: 30.0 mg/kg/injection, schedule: Q01DX001 (ip), vehicle: saline 92 % of control

O=CO.[Cr]
inactive: [4] 102 % of control | [5] 98 % of control | [6] 98 % of control

CCCCCCCCC(CCCCCCCC)CC1CCC2CCCC21 (configuration not stated)
inactive: dose: 75.0 mg/kg/injection, schedule: Q01DX001 (ip), vehicle: saline with Tween-80 93 % of control | dose: 150.0 mg/kg/injection, schedule: Q01DX001 (ip), vehicle: saline with Tween-80 90 % of control | dose: 300.0 mg/kg/injection, schedule: Q01DX001 (ip), vehicle: saline with Tween-80 90 % of control

CCOC(=O)C(=Cc1csc2ccccc12)C(=O)OCC
inactive: [10] 92 % of control | [12] 94 % of control | [14] 94 % of control
